What was measured:
Assay type in all cases: physicochemical
[1] = Stability in pH 3 buffer assessed as rate constant of compound hydrolysis at 37 degC by 31P NMR analysis
[2] = Stability in pH 3 buffer assessed as half life at 37 degC by 31P NMR analysis
[3] = Stability in pH 7.4 buffer assessed as rate constant of compound hydrolysis at 37 degC by 31P NMR analysis
[4] = Stability in pH 7.4 buffer assessed as half life at 37 degC by 31P NMR analysis; details: for half-life: pH 7.4 buffer
[5] = Stability in pH 7.4 buffer assessed as compound hydrolysis measured over 8 hrs at 37 degC by 31P NMR analysis; details: pH 7.4, 8 h

SMILES | K [1] | half-life [2] [h] | K [3] | half-life [4] [h] | Stability [5] | t1/2 ([4]; buffer) [h]
CCOC(=O)[C@@H](NC(C)=O)[C@@H](C)OP(=O)([O-])N[C@@H](Cc1ccc(O)c(O)c1)C(=O)[O-].[K+].[K+] | 1.2 ×10⁻¹ /hr | 5.5 | Stable | > 8 | Stable | –
CC(=O)N[C@H](C(=O)[O-])[C@@H](C)OP(=O)([O-])N[C@@H](Cc1ccc(O)c(O)c1)C(=O)[O-].[K+].[K+].[K+] | Unstable | < 0.0833 | 7.2 ×10⁻¹ /hr | 0.92 | – | –
CC(=O)N[C@@H](COP(=O)([O-])N[C@@H](Cc1ccc(O)c(O)c1)C(=O)[O-])C(=O)[O-].[K+].[K+].[K+] | Unstable | < 0.0833 | 7 ×10⁻² /hr | – | – | 9.9
CC(=O)N[C@@H](COP(=O)([O-])NCCc1ccc(O)c(O)c1)C(=O)[O-].[K+].[K+] | Unstable | < 0.0833 | 5.7 ×10⁻² /hr | 12.1 | – | –

Results, then the compound that gave them:

K [1] | half-life [2] [h] | K [3] | half-life [4] [h] | Stability [5] | t1/2 ([4]; buffer) [h] | SMILES
Unstable | < 0.0833 | Unstable | < 0.0833 | – | – | O=C([O-])CCOP(=O)([O-])N[C@@H](Cc1ccc(O)c(O)c1)C(=O)[O-].[K+].[K+].[K+]
5.4 ×10⁻¹ /hr | 1.2 | Stable | > 8 | Stable | – | O=C([O-])CCCOP(=O)([O-])N[C@@H](Cc1ccc(O)c(O)c1)C(=O)[O-].[K+].[K+].[K+]
4 ×10⁻¹ /hr | 1.7 | Stable | > 8 | Stable | – | CC(=O)NCCOP(=O)([O-])N[C@@H](Cc1ccc(O)c(O)c1)C(=O)[O-].[K+].[K+]
4 ×10⁻¹ /hr | 1.7 | Stable | > 8 | Stable | – | CCOC(=O)CCOP(=O)([O-])N[C@@H](Cc1ccc(O)c(O)c1)C(=O)[O-].[K+].[K+]
2.5 ×10⁻¹ /hr | 2.7 | Stable | > 8 | Stable | – | CCOC(=O)[C@H](COP(=O)([O-])N[C@@H](Cc1ccc(O)c(O)c1)C(=O)[O-])NC(C)=O.[K+].[K+]
